In US9777301B2, “Method for producing optically active amine compounds by deracemization” (INDUSTRY-ACADEMIC COOPERATION FOUNDATION, YONSEI UNIVERSITY, priority 2012, dated 2017):
“Also recorded” adds a separate entry of the source. Marks after values point to notes of the source that are not given here.

Tests used:
[1] = system: (S)-selective ω-transaminase derived from O. anthropi; assay: Substrate specificity of (S)-selective ω-transaminase toward keto acids; assay type: biochemical, Ochrobactrum anthropi; conditions: for Acetophenone (mM) O. anthropi: keto acid 20 mM, (S)-α-methylbenzylamine 20 mM, 50 mM potassium phosphate pH 7, 37° C., 10 min; for Activity of (S)-selective ω-transaminase toward keto acid (in words): Table 9, speaks of the (S)-selective ω-transaminase without naming O. anthropi or P. denitrificans
Method: (§1) The substrate specificity of the (S)-selective ω-transaminase was confirmed in each keto acid (20 mM), (S)-α-methylbenzylamine (20 mM) and potassium phosphate (50 mM, pH 7). After the reactions were carried out at 37° C. for 10 min, the amounts of acetophenone produced were measured.

[2] = system: D-amino acid transaminase; assay: Substrate specificity of purified D-amino acid transaminase toward keto acids (amino acceptors); assay type: biochemical, Bacillus sphaericus; conditions: for Pyruvate (mM) generated: D-alanine 20 mM as amino donor; for Activity of D-amino acid transaminase toward amino acceptor (in words): Tables 7 and 8
Method: Each of amino acceptors shown in Tables 7 and 8 and D-alanine or D-homoalanine as substrates were allowed to react with the D-amino acid transaminase purified in Example 7. Specifically, each amino acceptor (20 mM), D-alanine or D-homoalanine (20 mM), and potassium phosphate (50 mM, pH 7) were allowed to react with 0.1 U/ml of the D-amino acid transaminase at 37° C. for 10 min, and the amount of a keto acid (pyruvate or 2-oxobutyrate) generated was measured.

[3] = system: (S)-selective ω-transaminase derived from P. denitrificans; assay: Substrate specificity of (S)-selective ω-transaminase toward keto acids; assay type: biochemical, Paracoccus denitrificans; conditions: for Acetophenone (mM) P. denitrificans: keto acid 20 mM, (S)-α-methylbenzylamine 20 mM, 50 mM potassium phosphate pH 7, 37° C., 10 min
Method: as §1

[4] = system: (S)-selective ω-transaminase derived from O. anthropi; assay: Substrate specificity of ω-transaminase toward 11 racemic amines (initial rate, relative reactivity); assay type: biochemical, Ochrobactrum anthropi; conditions: for Activity toward (S)-1-aminoindane relative to (S)-α-methylbenzylamine: (S)-enantiomer compared with (S)-α-methylbenzylamine, value in parentheses in Table 13; for Relative reactivity (%): PLP 0.1 mM, 10 min, activity toward α-methylbenzylamine defined as 100%
Method: An investigation was made as to the substrate specificities of the (S)-selective ω-transaminase derived from O. anthropi, which was purified in Example 7, toward 11 amines: α-methylbenzylamine 1a, 4-fluoro-α-methylbenzylamine 1b, α-ethylbenzylamine 1c, 1-methyl-3-phenylpropylamine 1d, 1-aminoindane 1e, sec-butylamine 1f, cyclopropylethylamine 1g, 2-aminopentane 1h, 2-aminooctane 1i, 1-methoxy-2-propylamine 1j, and alaninol 1k. 0.125 U/ml of the (S)-selective transaminase derived from O. anthropi was added to each racemic amine (10 mM), pyruvate (10 mM), PLP (0.1 mM), and phosphate buffer (50 mM, pH 7.5) at 37° C. After the mixture was allowed to react for 10 min, the amount of L-alanine produced was measured via GITC derivatization. All activities were measured in the initial reaction rate range of ≦5% conversion. The initial reaction rate for α-methylbenzylamine was measured to be 0.033 mM/min. When the activity of the ω-transaminase toward α-methylbenzylamine was defined as 100%, the activities of the ω-transaminase toward 4-fluoro-α-methylbenzylamine 1b, α-ethylbenzylamine 1c, 1-methyl-3-phenylpropylamine 1d, and 1-aminoindane 1e as arylalkylamines were 91%, 18%, 70%, and 64%, respectively. The activity of the ω-transaminase toward (S)-1-aminoindane was 153% of that toward (S)-α-methylbenzylamine. The activities of the ω-transaminase toward sec-butylamine 1f, cyclopropylethylamine 1g, 2-aminopentane 1h, 2-aminooctane 1i, 1-methoxy-2-propylamine 1j, and alaninol 1k as alkylamines were 54%, 63%, 29%, 146%, 60%, and 63%, respectively.

[5] = system: (S)-selective ω-transaminase derived from O. anthropi; assay type: biochemical, Ochrobactrum anthropi; conditions: for Activity of (S)-selective ω-transaminase toward amine (in words): Table 10, speaks of the (S)-selective ω-transaminase without naming O. anthropi or P. denitrificans; for L-alanine (mM) O. anthropi: amine 20 mM (40 mM racemic sec-butylamine), pyruvate as acceptor, 50 mM potassium phosphate pH 7, 37° C., 10 min
Method: (§2) The substrate specificity of the (S)-selective ω-transaminase was confirmed in each amine (20 mM), (S)-amine (20 mM, in 40 mM racemic sec-butylamine) and potassium phosphate (50 mM, pH 7). After the reactions were carried out at 37° C. for 10 min, the amounts of L-alanine produced were measured.

[6] = system: (S)-selective ω-transaminase derived from P. denitrificans; assay: Substrate specificity of (S)-selective ω-transaminase toward amines (L-alanine from pyruvate); assay type: biochemical, Paracoccus denitrificans; conditions: amine 20 mM (40 mM racemic sec-butylamine), pyruvate as acceptor, 50 mM potassium phosphate pH 7, 37° C., 10 min
Method: as §2

[7] = system: D-amino acid transaminase; assay: Effect of L-amino acid concentration on activity of D-amino acid transaminase; assay type: biochemical, Bacillus sphaericus; conditions: 0-20 mM L-homoalanine in 20 mM D-homoalanine, 20 mM pyruvate, pH 7, 37° C., 10 min; 2-oxobutyrate measured
Method: For continuous deracemization of a racemic amino acid with the D-amino acid transaminase purified in Example 7, L-amino acid as a final product should not affect the activity of the D-amino acid transaminase. Deterioration in the activity of the enzyme by the final product makes it difficult to induce continuous reactions. The activities of the D-amino acid transaminase were confirmed at different concentrations (0, 1, 3, 5, 7, 10, 15, and 20 mM) of L-homoalanine in 20 mM D-homoalanine, 20 mM pyruvate, and 50 mM potassium phosphate (pH 7). After the reactions were carried out at 37° C. for 10 min, the amounts of 2-oxobutyrate produced were measured.

[8] = amino acceptor 20 mM, 0.1 U/ml enzyme, 50 mM potassium phosphate pH 7, 37° C., 10 min
[9] = racemic amine 10 mM, pyruvate 10 mM, 0.125 U/ml enzyme, pH 7.5, 37° C.

O=CC(=O)Oc1ccccc1 [Phenyl glyoxylate]
Acetophenone (mM) O. anthropi [1]: -0.005 mM
Pyruvate (mM) generated [2, 8]: 0.000 mM
Acetophenone (mM) P. denitrificans [3]: -0.008 mM

CCC(C)C(=O)C(=O)O (stereo not drawn) [3-Methyl-2-oxopentanoate]
Acetophenone (mM) O. anthropi [1]: 0.001 mM
Acetophenone (mM) P. denitrificans [3]: -0.004 mM

NC1CCc2ccccc21 (racemic) [Substrate 1e, 1-aminoindane]
Activity toward (S)-1-aminoindane relative to (S)-α-methylbenzylamine [4]: 153%
Relative reactivity (%) [4, 9]: 64%

CCC(C)N (racemic) [Substrate 1f, sec-butylamine]
Activity of (S)-selective ω-transaminase toward amine (in words) [5]: have activity
L-alanine (mM) O. anthropi [5]: 0.164 ± 0.019 mM
Relative reactivity (%) [4, 9]: 54%
L-alanine (mM) P. denitrificans [6]: 0.000 ± 0.000 mM

CCCC(C)N (racemic) [Substrate 1h, 2-aminopentane]
Relative reactivity (%) [4, 9]: 29%

CC(C)N [Isopropylamine]
Activity of (S)-selective ω-transaminase toward amine (in words) [5]: have activity
L-alanine (mM) O. anthropi [5]: 0.309 ± 0.050 mM
L-alanine (mM) P. denitrificans [6]: 0.033 ± 0.002 mM

CCC(=O)C(=O)O [2-Oxobutyrate]
Activity of (S)-selective ω-transaminase toward keto acid (in words) [1]: have activity
Acetophenone (mM) O. anthropi [1]: 0.173 mM
Activity of D-amino acid transaminase toward amino acceptor (in words) [2]: have activity
Pyruvate (mM) generated [2, 8]: 1.375 mM
Acetophenone (mM) P. denitrificans [3]: 0.821 mM

CC(C)C(=O)C(=O)O [3-Methyl-2-oxobutyrate]
Acetophenone (mM) O. anthropi [1]: -0.001 mM
Activity of D-amino acid transaminase toward amino acceptor (in words) [2]: have activity
Pyruvate (mM) generated [2, 8]: 0.014 mM
Acetophenone (mM) P. denitrificans [3]: -0.002 mM

CC(N)CO (stereo not drawn) [Substrate 1k, alaninol]
Relative reactivity (%) [4, 9]: 63%

N[C@H]1CCc2ccccc21 [(S)-1-aminoindane]
Activity toward (S)-1-aminoindane relative to (S)-α-methylbenzylamine [4]: 153%

O=C(O)C(=O)CS [Mercaptopyruvate]
Acetophenone (mM) O. anthropi [1]: 0.012 mM
Activity of D-amino acid transaminase toward amino acceptor (in words) [2]: have activity
Pyruvate (mM) generated [2, 8]: 0.022 mM
Acetophenone (mM) P. denitrificans [3]: 0.008 mM

O=C(O)C(=O)CF [Fluoropyruvate]
Activity of (S)-selective ω-transaminase toward keto acid (in words) [1]: have activity
Acetophenone (mM) O. anthropi [1]: 0.554 mM
Activity of D-amino acid transaminase toward amino acceptor (in words) [2]: have activity
Pyruvate (mM) generated [2, 8]: 0.053 mM
Acetophenone (mM) P. denitrificans [3]: 0.339 mM

CC(N)CCc1ccccc1 (racemic) [Substrate 1d, 1-methyl-3-phenylpropylamine]
Relative reactivity (%) [4, 9]: 70%

O=C(O)CCC(=O)C(=O)O [α-Ketoglutarate]
Activity of (S)-selective ω-transaminase toward keto acid (in words) [1]: no activity
Acetophenone (mM) O. anthropi [1]: -0.001 mM
Activity of D-amino acid transaminase toward amino acceptor (in words) [2]: have activity; also recorded: had activity
Pyruvate (mM) generated [2, 8]: 0.971 mM
Acetophenone (mM) P. denitrificans [3]: -0.003 mM

O=C(O)C(=O)CO [β-Hydroxypyruvate]
Activity of (S)-selective ω-transaminase toward keto acid (in words) [1]: have activity
Acetophenone (mM) O. anthropi [1]: 0.183 mM
Activity of D-amino acid transaminase toward amino acceptor (in words) [2]: have activity
Pyruvate (mM) generated [2, 8]: 0.079 mM
Acetophenone (mM) P. denitrificans [3]: 0.066 mM

CC(C)CC(=O)C(=O)O [4-Methyl-2-oxopentanoate]
Acetophenone (mM) O. anthropi [1]: 0.005 mM
Activity of D-amino acid transaminase toward amino acceptor (in words) [2]: have activity
Pyruvate (mM) generated [2, 8]: 0.073 mM
Activity of (S)-selective ω-transaminase toward keto acid (in words) ([3]; Table 9, marked (P. denitrificans)): have activity
Acetophenone (mM) P. denitrificans [3]: 0.175 mM

COCC(C)N (racemic) [Substrate 1j, 1-methoxy-2-propylamine]
Relative reactivity (%) [4, 9]: 60%

CCCCCCC(C)N (racemic) [Substrate 1i, 2-aminooctane]
Relative reactivity (%) [4, 9]: 146%

CC(N)c1ccc(F)cc1 (racemic) [Substrate 1b, 4-fluoro-α-methylbenzylamine]
Relative reactivity (%) [4, 9]: 91%

CCCC(=O)C(=O)O [2-Oxopentanoate]
Activity of (S)-selective ω-transaminase toward keto acid (in words) [1]: have activity
Acetophenone (mM) O. anthropi [1]: 0.078 mM
Activity of D-amino acid transaminase toward amino acceptor (in words) [2]: have activity
Pyruvate (mM) generated [2, 8]: 0.882 mM
2-Oxobutyrate (mM) generated ([2]; amino acceptor 20 mM, D-homoalanine 20 mM as amino donor, 0.1 U/ml enzyme, 50 mM potassium phosphate pH 7, 37° C., 10 min): 0.651 mM
Acetophenone (mM) P. denitrificans [3]: 1.032 mM

O=CC(=O)O [Glyoxylate]
Activity of (S)-selective ω-transaminase toward keto acid (in words) [1]: have activity
Acetophenone (mM) O. anthropi [1]: 1.733 mM
Acetophenone (mM) P. denitrificans [3]: 1.076 mM

O=C(O)C(=O)C12CC3CC(CC(O)(C3)C1)C2 [2-(3-Hydroxy-1-adamantyl)-oxoethanoate]
Acetophenone (mM) O. anthropi [1]: -0.002 mM
Pyruvate (mM) generated [2, 8]: 0.000 mM
Acetophenone (mM) P. denitrificans [3]: -0.004 mM

C[C@H](N)c1ccccc1 [(S)-α-methylbenzylamine]
Activity of (S)-selective ω-transaminase toward amine (in words) [5]: have activity
L-alanine (mM) O. anthropi [5]: 0.715 ± 0.082 mM
L-alanine (mM) P. denitrificans [6]: 0.451 ± 0.077 mM

CC(C)(C)C(=O)C(=O)O [Trimethylpyruvate]
Acetophenone (mM) O. anthropi [1]: -0.002 mM
Pyruvate (mM) generated [2, 8]: 0.000 mM
Acetophenone (mM) P. denitrificans [3]: -0.004 mM

CC[C@H](N)C(=O)O [L-homoalanine]
Effect of L-amino acid on activity of D-amino acid transaminase (FIG. 1) [7]: did not lose its activity

CC(N)c1ccccc1 (racemic) [Substrate 1a, α-methylbenzylamine]
Relative reactivity (%) [4, 9]: 100^c %
Initial reaction rate ([4]; racemic amine 10 mM, pyruvate 10 mM, 0.125 U/ml enzyme, pH 7.5, 37° C., ≦5% conversion): 0.033 mM/min

CCCCC(=O)C(=O)O [2-Ketohexanoate]
Activity of (S)-selective ω-transaminase toward keto acid (in words) [1]: have activity
Acetophenone (mM) O. anthropi [1]: 0.006 mM
Activity of D-amino acid transaminase toward amino acceptor (in words) [2]: have activity
Pyruvate (mM) generated [2, 8]: 0.531 mM
Acetophenone (mM) P. denitrificans [3]: 0.713 mM

CCC(N)c1ccccc1 (racemic) [Substrate 1c, α-ethylbenzylamine]
Relative reactivity (%) [4, 9]: 18%
